Values quoted from earlier work, collected in patent US12683165B2, “Positive electrode additive for lithium secondary battery, positive electrode active material comprising same, positive electrode, and lithium secondary battery” (LG ENERGY SOLUTION, LTD., priority 2021, dated 2026).

Details: ether-based or carbonate-based solvent of a lithium-sulfur secondary battery electrolyte solution

For `O=c1[nH]c(=O)c2c3ccc4cccc5c6cccc7ccc(c12)c(c76)c3c45` [BPI, benzo[ghi]peryleneimide], the “dissolution in electrolyte solution solvent” value is given as “tends to be dissolved”.
